Where “and” joins values, the source holds several entries; their conditions need not be identical. Equal entries are not always repeated.
Assay: Pharmacokinetic evaluation of liquid bevirimat dosage forms, oral gavage, male Cynomolgus monkeys
Protocol: Six male Cynomolgus monkeys having an initial body weight of about 3.5 to about 4.5 kg are allowed 7 days to acclimate to their individual housing units. Monkeys are supplied with water and a commercial diet ad libitum prior to the study initiation. Food is withheld from the monkeys for a minimum of twelve hours before the study and during the study until four hours postdose when food is returned. Water is supplied ad libitum.
Test formulations are administered to the monkeys at time 0 on appropriate days. Test formulations will be dosed orally via oral gavage or intravenously.
Samples are drawn at the frequencies indicated below. Each blood sample (0.5 mL) is collected from the monkey's saphenous vein via a butterfly catheter and placed into a chilled polypropylene tube containing sodium heparin as the anticoagulant. Blood samples are centrifuged at a temperature of 4° C. at a speed of 3,000 rpm for 15 minutes. All samples are maintained chilled throughout processing. Plasma is collected after centrifugation, pipetted into a 2-mL polypropylene microtube, and frozen on dry-ice pending analytical evaluation.

[1] = oral, 50 mg/monkey, PG/glycerin/Vitamin ETPGS/Tween80/Plasdone C15 formulation, individual monkey
[2] = oral, 50 mg/monkey, PG/glycerin/Vitamin ETPGS/ethanol formulation, individual monkey
[3] = oral, 200 mg/monkey, PG/glycerin/Vitamin ETPGS/ethanol formulation, individual monkey

## C=C(C)[C@@H]1CC[C@]2(C(=O)O)CC[C@]3(C)[C@H](CC[C@@H]4[C@@]5(C)CC[C@H](OC(=O)CC(C)(C)C(=O)O)C(C)(C)[C@@H]5CC[C@]43C)[C@@H]12 [Bevirimat, 3-O-(3′,3′-dimethylsuccinyl)betulinic acid]
male, cynomolgus monkey, in vivo, po, 200 mg/monkey, Plasma Concentration, PG/glycerin/Vitamin ETPGS/ethanol formulation, 6.0 hr, individual monkey
  concentration at 6 hr: 79400 ng/mL
male, cynomolgus monkey, in vivo, po, 200 mg/monkey, Plasma Concentration, PG/glycerin/Vitamin ETPGS/ethanol formulation, 8.0 hr, AVG
  concentration at 8 hr: 51300 ng/mL
male, cynomolgus monkey, in vivo, po, 200 mg/monkey, Plasma Concentration, PG/glycerin/Vitamin ETPGS/ethanol formulation, 8.0 hr, individual monkey
  concentration at 8 hr: 53400 ng/mL
male, cynomolgus monkey, in vivo, po, 200 mg/monkey, Plasma Concentration, PG/glycerin/Vitamin ETPGS/ethanol formulation, 12 hr, AVG
  concentration at 12 hr: 19600 ng/mL
male, cynomolgus monkey, in vivo, po, 200 mg/monkey, Plasma Concentration, PG/glycerin/Vitamin ETPGS/ethanol formulation, 12 hr, individual monkey
  concentration at 12 hr: 15600 ng/mL
male, cynomolgus monkey, in vivo, po, 200 mg/monkey, Plasma Concentration, PG/glycerin/Vitamin ETPGS/ethanol formulation, 24 hr, AVG
  concentration at 24 hr: 4840 ng/mL
male, cynomolgus monkey, in vivo, po, 200 mg/monkey, Plasma Concentration, PG/glycerin/Vitamin ETPGS/ethanol formulation, 48 hr, AVG
  concentration at 48 hr: 2620 ng/mL
male, cynomolgus monkey, in vivo, po, 200 mg/monkey, Plasma Concentration, PG/glycerin/Vitamin ETPGS/ethanol formulation, 72 hr, AVG
  concentration at 72 hr: 296 ng/mL
oral, 50 mg/monkey, PG/glycerin/Vitamin ETPGS/Tween80/Plasdone C15 formulation, 0.25 hr, individual monkey
  Plasma Concentration: 56.3 ng/mL and 67.8 ng/mL
oral, 50 mg/monkey, PG/glycerin/Vitamin ETPGS/Tween80/Plasdone C15 formulation, 0.50 hr, individual monkey
  Plasma Concentration: 409 ng/mL and 2660 ng/mL and 7590 ng/mL
oral, 50 mg/monkey, PG/glycerin/Vitamin ETPGS/Tween80/Plasdone C15 formulation, 1.0 hr, individual monkey
  Plasma Concentration: 1010 ng/mL and 17400 ng/mL and 56100 ng/mL
oral, 50 mg/monkey, PG/glycerin/Vitamin ETPGS/Tween80/Plasdone C15 formulation, 2.0 hr, individual monkey
  Plasma Concentration: 63500 ng/mL and 68500 ng/mL
oral, 50 mg/monkey, PG/glycerin/Vitamin ETPGS/Tween80/Plasdone C15 formulation, 6.0 hr, individual monkey
  Plasma Concentration: 36300 ng/mL and 29000 ng/mL
oral, 50 mg/monkey, PG/glycerin/Vitamin ETPGS/Tween80/Plasdone C15 formulation, 8.0 hr, individual monkey
  Plasma Concentration: 21800 ng/mL and 19000 ng/mL
oral, 50 mg/monkey, PG/glycerin/Vitamin ETPGS/Tween80/Plasdone C15 formulation, 12 hr, individual monkey
  Plasma Concentration: 9150 ng/mL and 6750 ng/mL
oral, 50 mg/monkey, PG/glycerin/Vitamin ETPGS/Tween80/Plasdone C15 formulation, 24 hr, individual monkey
  Plasma Concentration: 1490 ng/mL and 988 ng/mL
oral, 50 mg/monkey, PG/glycerin/Vitamin ETPGS/Tween80/Plasdone C15 formulation, 48 hr, individual monkey
  Plasma Concentration: 635 ng/mL and 174 ng/mL and 200 ng/mL
oral, 50 mg/monkey, PG/glycerin/Vitamin ETPGS/Tween80/Plasdone C15 formulation, 72 hr, individual monkey
  Plasma Concentration: BLOQ
[1]
  Cmax: 63500 ng/mL and 68500 ng/mL
  t1/2: 5.3 h and 5.4 h
oral, 50 mg/monkey, PG/glycerin/Vitamin ETPGS/ethanol formulation, 0.25 hr, individual monkey
  Plasma Concentration: BLOQ
oral, 50 mg/monkey, PG/glycerin/Vitamin ETPGS/ethanol formulation, 0.50 hr, individual monkey
  Plasma Concentration: 268 ng/mL and 420 ng/mL and 49.7 ng/mL
oral, 50 mg/monkey, PG/glycerin/Vitamin ETPGS/ethanol formulation, 1.0 hr, individual monkey
  Plasma Concentration: 40200 ng/mL and 23100 ng/mL
oral, 50 mg/monkey, PG/glycerin/Vitamin ETPGS/ethanol formulation, 2.0 hr, individual monkey
  Plasma Concentration: 70800 ng/mL
oral, 50 mg/monkey, PG/glycerin/Vitamin ETPGS/ethanol formulation, 4.0 hr, individual monkey
  Plasma Concentration: 33200 ng/mL and 59800 ng/mL
oral, 50 mg/monkey, PG/glycerin/Vitamin ETPGS/ethanol formulation, 6.0 hr, individual monkey
  Plasma Concentration: 18100 ng/mL and 14000 ng/mL and 37000 ng/mL
oral, 50 mg/monkey, PG/glycerin/Vitamin ETPGS/ethanol formulation, 8.0 hr, individual monkey
  Plasma Concentration: 10600 ng/mL and 10000 ng/mL and 23600 ng/mL
oral, 50 mg/monkey, PG/glycerin/Vitamin ETPGS/ethanol formulation, 12 hr, individual monkey
  Plasma Concentration: 3390 ng/mL and 3450 ng/mL and 9100 ng/mL
oral, 50 mg/monkey, PG/glycerin/Vitamin ETPGS/ethanol formulation, 24 hr, individual monkey
  Plasma Concentration: 922 ng/mL and 1100 ng/mL and 2000 ng/mL
oral, 50 mg/monkey, PG/glycerin/Vitamin ETPGS/ethanol formulation, 48 hr, individual monkey
  Plasma Concentration: 62.6 ng/mL and 97.8 ng/mL and 286 ng/mL
oral, 50 mg/monkey, PG/glycerin/Vitamin ETPGS/ethanol formulation, 72 hr, individual monkey
  Plasma Concentration: BLOQ
[2]
  Cmax: 50500 ng/mL and 70800 ng/mL
  Dnzed AUCall: 33692 ng·h/mL/mg/kg
  t1/2: 7.0 h and 7.4 h
oral, 200 mg/monkey, PG/glycerin/Vitamin ETPGS/ethanol formulation, 0.25 hr, individual monkey
  Plasma Concentration: 1040 ng/mL and 89.0 ng/mL
oral, 200 mg/monkey, PG/glycerin/Vitamin ETPGS/ethanol formulation, 0.50 hr, individual monkey
  Plasma Concentration: 10300 ng/mL and 1740 ng/mL
oral, 200 mg/monkey, PG/glycerin/Vitamin ETPGS/ethanol formulation, 1.0 hr, individual monkey
  Plasma Concentration: 88400 ng/mL and 41200 ng/mL
oral, 200 mg/monkey, PG/glycerin/Vitamin ETPGS/ethanol formulation, 2.0 hr, individual monkey
  Plasma Concentration: 232000 ng/mL
oral, 200 mg/monkey, PG/glycerin/Vitamin ETPGS/ethanol formulation, 4.0 hr, individual monkey
  Plasma Concentration: 138000 ng/mL
oral, 200 mg/monkey, PG/glycerin/Vitamin ETPGS/ethanol formulation, 6.0 hr, individual monkey
  Plasma Concentration: 76300 ng/mL
oral, 200 mg/monkey, PG/glycerin/Vitamin ETPGS/ethanol formulation, 12 hr, individual monkey
  Plasma Concentration: 23700 ng/mL
oral, 200 mg/monkey, PG/glycerin/Vitamin ETPGS/ethanol formulation, 24 hr, individual monkey
  Plasma Concentration: 2180 ng/mL and 7500 ng/mL
oral, 200 mg/monkey, PG/glycerin/Vitamin ETPGS/ethanol formulation, 48 hr, individual monkey
  Plasma Concentration: 547 ng/mL and 4700 ng/mL
oral, 200 mg/monkey, PG/glycerin/Vitamin ETPGS/ethanol formulation, 72 hr, individual monkey
  Plasma Concentration: 117 ng/mL and 474 ng/mL
[3]
  AUCall: 1398.863 µg·h/mL
  Cmax: 232000 ng/mL
  Dnzed AUCall: 27977 ng·h/mL/mg/kg
  t1/2: 10.1 h

— patent US20100216751A1 (priority 2007, published 2010)
